Test results published in patent publication US9808470B2, “Estrogenic components for use in the treatment of neurological disorders” (UNIVERSITE DE LIEGE, priority 2012, dated 2017).

Key:
Type in all cases: in vivo
[1] = Ex.4 therapeutic HIE rat model: rectal temperature; details: E4 1, 5, 10, 50 mg/kg single ip dose after HI at PND7; 0, 2, 4 h after hypoxia
Protocol: The rectal temperature of the rat pups was measured with a multipurpose thermometer (BAT-10R, Physitemp Instruments Inc., Clifton, N.J., US) along with a rectal probe (RET-4, BioMedical Instruments, Zollnitz, Germany) at 0, 2, and 4 hours after exposure to hypoxic insult. To keep the variability of the temperature low, measurements of rectal temperature were made in a 25° C. room 15 min after removal of the pups from the nest (except the 1st post-hypoxic measurement which was done immediately). It has been shown that the rectal temperature corresponds very well to the brain core temperature (Thoresen et al. 1996. Arch Dis Child Fetal Neonatal 74: F3-F9, Yager et al. 1993. Pediatr Res 34: 525-529).
To study the therapeutic effect of estetrol, newborn rat pups were assigned to one of the following 6 groups at postnatal day 7: sham group (n=29), vehicle group (n=20), 1 mg/kg E4 group (n=16), 5 mg/kg E4 group (n=19), 10 mg/kg day E4 (n=17) and 50 mg/kg day E4 group (n=15). At postnatal day 7 animals were anesthetized with isoflurane (induction, 3.0%; maintenance, 1.5%), and the rat pups from vehicle and E4 groups passed through surgery encompassing left common carotid artery double ligation and cut. After surgery, the pups were returned to their dams and allowed to recover for 1 hour. The pups were then placed in a humidified hypoxic in vivo cabinet (CoyLab). […]

[2] = Ex.2 neonatal HIE rat model, pre-treatment: brain weight; details: E4 5 mg/kg ip day 4-7 before HI; day 14; vs vehicle
Protocol: Ischemia was produced by surgery encompassing left common carotid artery double ligation and cut; hypoxia was produced by the inhalation of 11%-8% of oxygen balanced by nitrogen at decreased concentration of oxygen for 20 minutes, followed by inhalation of 8% oxygen and 92% nitrogen at constant concentration for 35 minutes.
Animals were then perfused transcardially with 0.9% saline solution at 4° C., and then with 4% paraformaldehyde in a 0.1-mol/L phosphate-buffered saline solution (pH 7.4) at 4° C. The brains were quickly isolated, weighed and immersed in the same fixative solution at 4° C. for 24 hours, dehydrated with a graded series of ethanol and xylene, and embedded in paraffin.
After delivery, newborn rat pups were assigned to one of the following 4 groups: Sham group, Vehicle group, E4 5 mg/kg/per day group and E4 50 mg/kg/per day group. From day 4 to day 7 inclusive, rat pups were injected intraperitoneally either vehicle (Vehicle group) or E4 (5 mg/kg or 50 mg/kg in accordance to the group assignment) or not injected at all (Sham group). […]

[3] = tested on: Microtubule-associated protein 2 (MAP2); experiment: Ex.4 therapeutic HIE rat model: MAP2 staining; details: PND14
Protocol: The brain sections were processed for immunohistochemical detection of neuronal cytoskeletal disruption. For antigen retrieval, the sections were heated in 10 mmol/L citrate buffer (pH 6.0) at 100° C. for 10 minutes. Endogenous peroxidase activity was blocked with 3% hydrogen peroxide for 10 minutes and after a second blocking with 5% normal goat serum, the sections were incubated with anti-microtubule-associated protein 2 (MAP2) antibody, diluted 1:1000 (mouse monoclonal antibody; Sigma, St. Louis, Mo., US) 1 h at room temperature. After rinsing, biotinylated goat anti-mouse immunoglobulin G (Vector Laboratories, Burlingame, Calif.) was added, and antibody detection was performed with the avidin-biotin complex method (Vector Laboratories), with 3,3′-diaminobenzidine (DAB) as the chromogen. Following the reaction with DAB, the slides were washed, dehydrated, and coverslipped.
Samples were analyzed with the aid of an image scanner (Nanozoomer Virtual Microscopy, Hamamatsu, Tokyo, Japan) and the ImageJ software (NIH, US). The MAP2 positive areas in the ipsilateral and contralateral hemispheres were measured. The ratio of the MAP2 positive areas was calculated as the MAP2 positive area of the ipsilateral hemisphere divided by the MAP2 positive area of the contralateral hemisphere. The ratio of the MAP2 positive area in the Sham group was considered by default as 1.0.
To study the therapeutic effect of estetrol, newborn rat pups were assigned to one of the following 6 groups at postnatal day 7: sham group (n=29), vehicle group (n=20), 1 mg/kg E4 group (n=16), 5 mg/kg E4 group (n=19), 10 mg/kg day E4 (n=17) and 50 mg/kg day E4 group (n=15). At postnatal day 7 animals were anesthetized with isoflurane (induction, 3.0%; maintenance, 1.5%), and the rat pups from vehicle and E4 groups passed through surgery encompassing left common carotid artery double ligation and cut. After surgery, the pups were returned to their dams and allowed to recover for 1 hour. The pups were then placed in a humidified hypoxic in vivo cabinet (CoyLab). Hypoxia was produced by the inhalation of 11%-8% of oxygen balanced by nitrogen at decreased concentration of oxygen for 20 minutes, followed by inhalation of 8% oxygen and 92% nitrogen at constant concentration for 35 minutes. All the manipulations were performed at 37° C.
Upon retrieval from the hypoxia chamber the rat pups were injected intraperitoneally either by vehicle (vehicle group) or by E4 (1 mg/kg, 5 mg/kg, 10 mg/kg or 50 mg/kg) in accordance to the group assignment. The animals from the sham group went through similar procedures but proceeded neither left common carotid artery ligation and cut followed by hypoxia nor vehicle or estetrol administration. Rat pups recovered with their dams until being sacrificed at postnatal day 14.

rectal temperature [1]: did not affect the body temperature
Compound: C[C@]12CC[C@@H]3c4ccc(O)cc4CC[C@H]3[C@@H]1[C@@H](O)[C@@H](O)[C@@H]2O [E4, 1,3,5(10)-estratrien-3,15α,16α,17β-tetrol]
brain weight [2]: significantly higher | ratio of MAP2-positive area (ipsilateral/contralateral) ([3]; 1 mg/kg E4 single ip dose after HI): 0.943±0.028 | ratio of MAP2-positive area (ipsilateral/contralateral) ([3]; 5 mg/kg E4 single ip dose after HI): 0.89±0.037 | ratio of MAP2-positive area (ipsilateral/contralateral) ([3]; 10 mg/kg E4 single ip dose after HI): 0.938±0.044 | ratio of MAP2-positive area (ipsilateral/contralateral) ([3]; 50 mg/kg E4 single ip dose after HI): 0.966±0.036
